{"source": "patent US20130177904A1", "about": "“ARNT ISOFORM 3 AS A PREDICTOR OF AMINOFLAVONE RESPONSIVENESS IN CANCER CELLS” (UNIVERSITY OF MARYLAND, BALTIMORE, priority 2010, published 2013)", "key": {"Hst578t": {"tested_on": "Hst578t", "test": "Cell Death Detection ELISA PLUS apoptosis assay", "format": "cell-based, Human", "details": "1 μM AF, Hst578t listed as AF insensitive, 24 h or 48 h, FIG. 2A", "description": "(§1) To determine the induction of apoptosis, the Cell Death Detection ELISA^PLUS Assay (Roche Cat. No. 11774425001), which determines the degree of cytoplasmic mono- and oligonucleosomes, was employed as described by the manufacturer. Briefly, breast cancer cells (5,000 cells for MCF-7; 2,000 cells for MDA-MB-231; 15,000 cells for T47D; 15,000 cells for MDA-MB-468; 5,000 cell for Hst578) were plated on 96 well plates and treated the next morning with or without or 1 uM AF for 24 h or 48 h. Cells were then concentrated by centrifugation at 200 g for 10 min at room temperature and the supernatant was discarded. Cells were lysed, and cytoplasmic fractions containing fragmented DNA were transferred to streptavidin-coated microtiter plates preincubated with a biotinylated monoclonal anti-histone antibody. The amount of fragmented nucleosomes bound to anti-histone antibody was evaluated by peroxidase-conjugated monoclonal antibody using ABTS (2,2-azino-di[3-ethylbenzthiazoline sulfonate-6-diammonium salt]) as a substrate, and read in a microplate reader at 405 nm. Non-treated cells were employed as controls."}, "MDA-MB-231": {"tested_on": "MDA-MB-231", "test": "Cell Death Detection ELISA PLUS apoptosis assay", "format": "cell-based, Human", "details": "1 μM AF, MDA-MB-231, 24 h or 48 h, FIG. 2A", "description": "as §1"}, "A496": {"tested_on": "A496", "details": "A496 renal cell line, NIH dose response data; cited from earlier work"}, "CAKi1": {"tested_on": "CAKi1", "details": "CAKi1 renal cell line, NIH dose response data; cited from earlier work"}, "U251": {"tested_on": "U251", "details": "U251 CNS cancer cell line, NIH dose response data; cited from earlier work"}, "SW620": {"tested_on": "SW620", "details": "SW620 colon cell line, NIH dose response data; cited from earlier work"}}}
{"smiles": "Cc1c(F)c(N)c2c(=O)cc(-c3ccc(N)c(F)c3)oc2c1F", "note": "[AF, 5-amino-2-(4-amino-3-fluorophenyl)-6,8-difluoro-7-methylchromen-4-one]", "values": [{"measurement": "increase in cytoplasmic nucleosomes", "setting": "Hst578t", "value": "< 2", "unit": "fold"}, {"measurement": "increase in cytoplasmic nucleosomes", "setting": "MDA-MB-231", "value": "< 2", "unit": "fold"}, {"measurement": "AF sensitivity", "setting": "A496", "value": "AF sensitive"}, {"measurement": "AF sensitivity", "setting": "CAKi1", "value": "AF sensitive"}, {"measurement": "AF sensitivity", "setting": "U251", "value": "some degree of sensitivity"}, {"measurement": "AF sensitivity", "setting": "SW620", "value": "AF sensitive"}]}
